{
  "source": "the supplement of paper PMC10733146",
  "assay_in_all_cases": "viability relative to DMSO control (fraction); higher = less drug effect (more viable cells)",
  "settings_in_all_cases": "48 h",
  "key": {"[1]": {"tested_on": "primary AML patient cells (S081)", "procedure,_shortened": "(§1)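 Cells were incubated for 48 h at 37 °C and 5% CO2 in RPMI-1640 with penicillin/streptomycin, L-glutamine and human serum, at 4 × 10^4 cells per well in 384-well plates with compounds pre-plated at five concentrations, one well each. These were primary mononuclear tumour cells, fresh or cryopreserved, Ficoll-isolated from blood or bone marrow or obtained from processed lymph node. Viability values are CellTiter-Glo luminescence relative to the median of 16 inner DMSO wells.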"}, "[2]": {"tested_on": "primary B-PLL patient cells (S016)", "procedure,_shortened": "as §1"}, "[3]": {"tested_on": "primary FL patient cells (S087)", "procedure,_shortened": "as §1"}, "[4]": {"tested_on": "primary AML patient cells (S017)", "procedure,_shortened": "as §1"}, "[5]": {"tested_on": "primary CLL patient cells (S031)", "procedure,_shortened": "as §1"}, "[6]": {"tested_on": "primary MCL patient cells (S063)", "procedure,_shortened": "as §1"}, "[7]": {"tested_on": "primary FL patient cells (S022)", "procedure,_shortened": "as §1"}, "[8]": {"tested_on": "primary MCL patient cells (S053)", "procedure,_shortened": "as §1"}, "[9]": {"tested_on": "primary AML patient cells (S021)", "procedure,_shortened": "as §1"}, "[10]": {"tested_on": "primary MCL patient cells (S068)", "procedure,_shortened": "as §1"}, "[11]": {"tested_on": "primary AML patient cells (S011)", "procedure,_shortened": "as §1"}, "[12]": {"tested_on": "primary CLL patient cells (S043)", "procedure,_shortened": "as §1"}, "[13]": {"tested_on": "primary AML patient cells (S012)", "procedure,_shortened": "as §1"}, "[14]": {"tested_on": "primary AML patient cells (S056)", "procedure,_shortened": "as §1"}, "[15]": {"tested_on": "primary BL patient cells (S005)", "procedure,_shortened": "as §1"}, "[16]": {"tested_on": "primary AML patient cells (S085)", "procedure,_shortened": "as §1"}, "[17]": {"tested_on": "primary ALL patient cells (S048)", "procedure,_shortened": "as §1"}, "[18]": {"tested_on": "primary ALL patient cells (S088)", "procedure,_shortened": "as §1"}, "[19]": {"tested_on": "primary AML patient cells (S060)", "procedure,_shortened": "as §1"}, "[20]": {"tested_on": "primary AML patient cells (S006)", "procedure,_shortened": "as §1"}},
  "data": [
    {"smiles": "CC#CC(=O)N1CCC[C@H]1c1nc(-c2ccc(C(=O)Nc3ccccn3)cc2)c2c(N)nccn12", "note": "[Acalabrutinib (ACP-196)]", "values": [
      {"measurement": "viability", "setting": "[1]; 0.008 µM", "result": 1.01},
      {"measurement": "viability", "setting": "[1]; 0.04 µM", "result": 1.05},
      {"measurement": "viability", "setting": "[1]; 0.2 µM", "result": 0.985},
      {"measurement": "viability", "setting": "[1]; 1 µM", "result": 1.02},
      {"measurement": "viability", "setting": "[1]; 5 µM", "result": 1.02},
      {"measurement": "viability", "setting": "[2]; 0.008 µM", "result": 0.748},
      {"measurement": "viability", "setting": "[2]; 0.04 µM", "result": 0.627},
      {"measurement": "viability", "setting": "[2]; 0.2 µM", "result": 0.601},
      {"measurement": "viability", "setting": "[2]; 1 µM", "result": 0.549},
      {"measurement": "viability", "setting": "[2]; 5 µM", "result": 0.6},
      {"measurement": "viability", "setting": "[3]; 0.008 µM", "result": 1.08},
      {"measurement": "viability", "setting": "[3]; 0.04 µM", "result": 1.03},
      {"measurement": "viability", "setting": "[3]; 0.2 µM", "result": 1.07},
      {"measurement": "viability", "setting": "[3]; 1 µM", "result": 0.994},
      {"measurement": "viability", "setting": "[3]; 5 µM", "result": 1.04},
      {"measurement": "viability", "setting": "[4]; 0.008 µM", "result": 1.32},
      {"measurement": "viability", "setting": "[4]; 0.04 µM", "result": 1.1},
      {"measurement": "viability", "setting": "[4]; 0.2 µM", "result": 1.15},
      {"measurement": "viability", "setting": "[4]; 1 µM", "result": 1.36},
      {"measurement": "viability", "setting": "[4]; 5 µM", "result": 0.997},
      {"measurement": "viability", "setting": "[5]; 0.008 µM", "result": 0.877},
      {"measurement": "viability", "setting": "[5]; 0.04 µM", "result": 0.817},
      {"measurement": "viability", "setting": "[5]; 0.2 µM", "result": 0.742},
      {"measurement": "viability", "setting": "[5]; 1 µM", "result": 0.722},
      {"measurement": "viability", "setting": "[5]; 5 µM", "result": 0.713},
      {"measurement": "viability", "setting": "[6]; 0.008 µM", "result": 0.697},
      {"measurement": "viability", "setting": "[6]; 0.04 µM", "result": 0.328},
      {"measurement": "viability", "setting": "[6]; 0.2 µM", "result": 0.276},
      {"measurement": "viability", "setting": "[6]; 1 µM", "result": 0.246},
      {"measurement": "viability", "setting": "[6]; 5 µM", "result": 0.262},
      {"measurement": "viability", "setting": "[7]; 0.008 µM", "result": 1.1},
      {"measurement": "viability", "setting": "[7]; 0.04 µM", "result": 1.12},
      {"measurement": "viability", "setting": "[7]; 0.2 µM", "result": 1.11},
      {"measurement": "viability", "setting": "[7]; 1 µM", "result": 1.09},
      {"measurement": "viability", "setting": "[7]; 5 µM", "result": 1.05},
      {"measurement": "viability", "setting": "[8]; 0.008 µM", "result": 0.711},
      {"measurement": "viability", "setting": "[8]; 0.04 µM", "result": 0.636},
      {"measurement": "viability", "setting": "[8]; 0.2 µM", "result": 0.656},
      {"measurement": "viability", "setting": "[8]; 1 µM", "result": 0.587},
      {"measurement": "viability", "setting": "[8]; 5 µM", "result": 0.66},
      {"measurement": "viability", "setting": "[9]; 0.008 µM", "result": 1.13},
      {"measurement": "viability", "setting": "[9]; 0.04 µM", "result": 1.05},
      {"measurement": "viability", "setting": "[9]; 0.2 µM", "result": 1.13},
      {"measurement": "viability", "setting": "[9]; 1 µM", "result": 1.1},
      {"measurement": "viability", "setting": "[9]; 5 µM", "result": 1.03},
      {"measurement": "viability", "setting": "[10]; 0.008 µM", "result": 0.878},
      {"measurement": "viability", "setting": "[10]; 0.04 µM", "result": 0.805},
      {"measurement": "viability", "setting": "[10]; 0.2 µM", "result": 0.788},
      {"measurement": "viability", "setting": "[10]; 1 µM", "result": 0.767},
      {"measurement": "viability", "setting": "[10]; 5 µM", "result": 0.785},
      {"measurement": "viability", "setting": "[11]; 0.008 µM", "result": 1.03},
      {"measurement": "viability", "setting": "[11]; 0.04 µM", "result": 1.02},
      {"measurement": "viability", "setting": "[11]; 0.2 µM", "result": 1.01},
      {"measurement": "viability", "setting": "[11]; 1 µM", "result": 0.864},
      {"measurement": "viability", "setting": "[11]; 5 µM", "result": 1.01},
      {"measurement": "viability", "setting": "[12]; 0.008 µM", "result": 0.794},
      {"measurement": "viability", "setting": "[12]; 0.04 µM", "result": 0.768},
      {"measurement": "viability", "setting": "[12]; 0.2 µM", "result": 0.73},
      {"measurement": "viability", "setting": "[12]; 1 µM", "result": 0.701},
      {"measurement": "viability", "setting": "[12]; 5 µM", "result": 0.72},
      {"measurement": "viability", "setting": "[13]; 0.008 µM", "result": 1.08},
      {"measurement": "viability", "setting": "[13]; 0.04 µM", "result": 1.16},
      {"measurement": "viability", "setting": "[13]; 0.2 µM", "result": 1.14},
      {"measurement": "viability", "setting": "[13]; 1 µM", "result": 1.16},
      {"measurement": "viability", "setting": "[13]; 5 µM", "result": 1.21},
      {"measurement": "viability", "setting": "[14]; 0.008 µM", "result": 1.04},
      {"measurement": "viability", "setting": "[14]; 0.04 µM", "result": 1.55},
      {"measurement": "viability", "setting": "[14]; 0.2 µM", "result": 1.02},
      {"measurement": "viability", "setting": "[14]; 1 µM", "result": 0.929},
      {"measurement": "viability", "setting": "[14]; 5 µM", "result": 0.766},
      {"measurement": "viability", "setting": "[15]; 0.008 µM", "result": 1.07},
      {"measurement": "viability", "setting": "[15]; 0.04 µM", "result": 1.15},
      {"measurement": "viability", "setting": "[15]; 0.2 µM", "result": 1.05},
      {"measurement": "viability", "setting": "[15]; 1 µM", "result": 1.17},
      {"measurement": "viability", "setting": "[15]; 5 µM", "result": 1.08},
      {"measurement": "viability", "setting": "[16]; 0.008 µM", "result": 1.05},
      {"measurement": "viability", "setting": "[16]; 0.04 µM", "result": 1.14},
      {"measurement": "viability", "setting": "[16]; 0.2 µM", "result": 1.01},
      {"measurement": "viability", "setting": "[16]; 1 µM", "result": 0.989},
      {"measurement": "viability", "setting": "[16]; 5 µM", "result": 1.02},
      {"measurement": "viability", "setting": "[17]; 0.008 µM", "result": 1.05},
      {"measurement": "viability", "setting": "[17]; 0.04 µM", "result": 0.955},
      {"measurement": "viability", "setting": "[17]; 0.2 µM", "result": 0.975},
      {"measurement": "viability", "setting": "[17]; 1 µM", "result": 0.962},
      {"measurement": "viability", "setting": "[17]; 5 µM", "result": 1.03},
      {"measurement": "viability", "setting": "[18]; 0.008 µM", "result": 1.04},
      {"measurement": "viability", "setting": "[18]; 0.04 µM", "result": 1.04},
      {"measurement": "viability", "setting": "[18]; 0.2 µM", "result": 1.04},
      {"measurement": "viability", "setting": "[18]; 1 µM", "result": 1.02},
      {"measurement": "viability", "setting": "[18]; 5 µM", "result": 1.16},
      {"measurement": "viability", "setting": "[19]; 0.008 µM", "result": 1.08},
      {"measurement": "viability", "setting": "[19]; 0.04 µM", "result": 1.06},
      {"measurement": "viability", "setting": "[19]; 0.2 µM", "result": 1.04},
      {"measurement": "viability", "setting": "[19]; 1 µM", "result": 1.05},
      {"measurement": "viability", "setting": "[19]; 5 µM", "result": 1.05},
      {"measurement": "viability", "setting": "[20]; 0.008 µM", "result": 1.08},
      {"measurement": "viability", "setting": "[20]; 0.04 µM", "result": 1.1},
      {"measurement": "viability", "setting": "[20]; 0.2 µM", "result": 1.09},
      {"measurement": "viability", "setting": "[20]; 1 µM", "result": 1.08},
      {"measurement": "viability", "setting": "[20]; 5 µM", "result": 1.04}
    ]}
  ]
}
